ChEMBL document CHEMBL1201862, “PubChem BioAssay data set” (2004)
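Five concentrations, 48 hours, 96-well plates. The concentration for 50% growth inhibition is given as GI50.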 Active and inactive are the calls of the source. No stated cut-off is given here; in the data, active = GI50 up to about 1.1 µM and inactive = higher.

What was measured:
Assay in all cases: inhibition of tumour cell growth, NCI panel, 48 h
SF-539 = tested on: SF-539
HT-29 = tested on: HT-29
A498 = tested on: A498
A549 = tested on: A549
HL-60 = tested on: HL-60
786-0 = tested on: 786-0
RPMI-8226 = tested on: RPMI-8226
SK-OV-3 = tested on: SK-OV-3
COLO 205 = tested on: COLO 205
MOLT-4 = tested on: MOLT-4
OVCAR-5 = tested on: OVCAR-5
TK-10 = tested on: TK-10
OVCAR-4 = tested on: OVCAR-4
SW-620 = tested on: SW-620
UACC-62 = tested on: UACC-62
UACC-257 = tested on: UACC-257
EKVX = tested on: EKVX
LOX IMVI = tested on: LOX IMVI

Measured: GI50

COC(=O)/C(=N/Nc1cccc(Cl)c1)C(C(=O)C(=O)Nc1cccc(Cl)c1C)c1nc2ccccc2nc1C (configuration not stated)
inactive: SF-539 59.2 µM | HT-29 > 100 µM | A498 > 100 µM | A549 63.7 µM | HL-60 29.6 µM | 786-0 > 100 µM | RPMI-8226 88.5 µM | SK-OV-3 > 100 µM | COLO 205 > 100 µM | MOLT-4 > 100 µM | OVCAR-5 24.4 µM | TK-10 > 100 µM | OVCAR-4 68.5 µM | SW-620 > 100 µM | UACC-62 24.6 µM | UACC-257 > 100 µM | EKVX > 100 µM

COC[n+]1cc2cc(OC)c(OC)cc2c2ccc3cc(OC)c(OC)cc3c21
inactive: SF-539 > 100 µM | HT-29 > 100 µM | A549 > 100 µM | HL-60 > 100 µM | 786-0 > 100 µM | RPMI-8226 > 100 µM | COLO 205 > 100 µM | MOLT-4 > 100 µM | LOX IMVI > 100 µM | OVCAR-5 > 100 µM | TK-10 > 100 µM | OVCAR-4 > 100 µM | SW-620 > 100 µM | UACC-62 > 100 µM | UACC-257 > 100 µM | EKVX > 100 µM

NCCn1ccc(NC(c2ccccc2)(c2ccccc2)c2ccccc2)nc1=O
inactive: SF-539 17 µM | HT-29 16.9 µM | A498 65.5 µM | A549 25.2 µM | HL-60 17.7 µM | 786-0 17.3 µM | RPMI-8226 18.6 µM | COLO 205 29.8 µM | MOLT-4 19 µM | LOX IMVI 16.4 µM | OVCAR-5 > 100 µM | TK-10 30 µM | OVCAR-4 36.3 µM | SW-620 19.1 µM | UACC-257 19.5 µM | EKVX 21.3 µM

CCOC(=O)c1cccnc1C(OC(C)=O)OC(C)=O
inactive: SF-539 > 100 µM | HT-29 > 100 µM | A498 > 100 µM | A549 > 100 µM | HL-60 49.9 µM | 786-0 > 100 µM | SK-OV-3 > 100 µM | COLO 205 > 100 µM | MOLT-4 > 100 µM | LOX IMVI 70 µM | OVCAR-5 > 100 µM | TK-10 > 100 µM | OVCAR-4 > 100 µM | SW-620 > 100 µM | UACC-62 > 100 µM | UACC-257 > 100 µM | EKVX > 100 µM

CCCOP1(=O)C=C(O)C(Cl)=C(C)C1 (configuration not stated)
inactive: SF-539 > 100 µM | HT-29 > 100 µM | A549 > 100 µM | HL-60 > 100 µM | 786-0 > 100 µM | SK-OV-3 > 100 µM | COLO 205 > 100 µM | MOLT-4 > 100 µM | LOX IMVI > 100 µM | TK-10 > 100 µM | OVCAR-4 > 100 µM | SW-620 > 100 µM | UACC-62 > 100 µM | UACC-257 > 100 µM | EKVX > 100 µM

O=C1CCC(=O)C(C(=O)CCC(=O)Nc2cccc(Cl)c2)C1 (configuration not stated)
inactive: SF-539 > 100 µM | HT-29 > 100 µM | A498 > 100 µM | A549 > 100 µM | HL-60 > 100 µM | 786-0 > 100 µM | RPMI-8226 > 100 µM | SK-OV-3 > 100 µM | COLO 205 > 100 µM | MOLT-4 > 100 µM | LOX IMVI > 100 µM | OVCAR-5 > 100 µM | TK-10 > 100 µM | SW-620 > 100 µM | UACC-62 > 100 µM | UACC-257 > 100 µM | EKVX > 100 µM

O=C(OCc1ccccc1)N1N=NC2C3CC(OCc4ccccc4)(OCc4ccccc4)C(O3)C21 (configuration not stated)
inactive: SF-539 32.7 µM | HT-29 26 µM | A498 41.7 µM | A549 17.3 µM | HL-60 7.59 µM | 786-0 29.1 µM | RPMI-8226 7.24 µM | SK-OV-3 99.3 µM | COLO 205 23.1 µM | MOLT-4 5.5 µM | LOX IMVI 15.1 µM | OVCAR-5 26 µM | OVCAR-4 22.2 µM | SW-620 20.6 µM | UACC-62 17.1 µM | UACC-257 14 µM

Cc1cc(NS(=O)(=O)c2ccc(Nc3c4ccccc4nc4c(C(=O)N5CCN(CCOS(C)(=O)=O)CC5)cccc34)cc2)no1
inactive: SF-539 > 100 µM | HT-29 > 100 µM | A498 > 100 µM | A549 > 100 µM | HL-60 > 100 µM | 786-0 > 100 µM | RPMI-8226 > 100 µM | SK-OV-3 > 100 µM | COLO 205 > 100 µM | MOLT-4 54.1 µM | OVCAR-5 > 100 µM | TK-10 > 100 µM | OVCAR-4 > 100 µM | UACC-62 > 100 µM | UACC-257 > 100 µM

O=[PH](O)c1ccccn1
inactive: SF-539 > 100 µM | HT-29 > 100 µM | A498 > 100 µM | A549 > 100 µM | HL-60 > 100 µM | 786-0 > 100 µM | RPMI-8226 > 100 µM | SK-OV-3 > 100 µM | COLO 205 > 100 µM | MOLT-4 > 100 µM | LOX IMVI > 100 µM | OVCAR-5 > 100 µM | TK-10 > 100 µM | OVCAR-4 > 100 µM | SW-620 > 100 µM | UACC-62 > 100 µM | UACC-257 > 100 µM | EKVX > 100 µM

COC(=O)/C(=C/c1ccc(OC)cc1)C(C(=O)O)=C(C)C
inactive: SF-539 > 100 µM | HT-29 > 100 µM | A498 > 100 µM | A549 > 100 µM | HL-60 > 100 µM | 786-0 > 100 µM | RPMI-8226 > 100 µM | SK-OV-3 > 100 µM | COLO 205 > 100 µM | MOLT-4 > 100 µM | LOX IMVI > 100 µM | OVCAR-5 > 100 µM | TK-10 > 100 µM | SW-620 > 100 µM | UACC-62 > 100 µM | UACC-257 > 100 µM | EKVX > 100 µM

CCOC(=O)C1S/C(=N\c2ccccc2)N=C1C (configuration not stated)
inactive: SF-539 73.5 µM | HT-29 30.3 µM | A498 > 100 µM | A549 55.5 µM | HL-60 59.6 µM | 786-0 77.8 µM | RPMI-8226 51.2 µM | COLO 205 > 100 µM | MOLT-4 38.2 µM | LOX IMVI 47.3 µM | OVCAR-5 96.8 µM | TK-10 > 100 µM | OVCAR-4 68.7 µM | SW-620 > 100 µM | UACC-257 > 100 µM | EKVX 64.1 µM

NC(C(=O)O)c1ccc(C(=O)O)cc1 (configuration not stated)
inactive: SF-539 > 100 µM | HT-29 > 100 µM | A549 > 100 µM | HL-60 > 100 µM | 786-0 > 100 µM | RPMI-8226 > 100 µM | SK-OV-3 > 100 µM | COLO 205 > 100 µM | MOLT-4 > 100 µM | LOX IMVI > 100 µM | OVCAR-5 > 100 µM | TK-10 > 100 µM | OVCAR-4 > 100 µM | SW-620 > 100 µM | UACC-62 > 100 µM | UACC-257 > 100 µM | EKVX > 100 µM
